Publication PMC6934184, “Selective DNA-PKcs inhibition extends the therapeutic index of localized radiotherapy and chemotherapy” (The Journal of Clinical Investigation, 2019)

Target: T1, ROS1 (Homo sapiens, UniProt P08922)
T1 construct: purchased Thermo Fisher Scientific (Life Technologies) SelectScreen
Test: SelectScreen Z'LYTE
Format: biochemical
Summary of the method: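 NU5455 was profiled across the SelectScreen Broad panel of kinase activity and binding assays. Z'LYTE reactions such as CSF1R ran at apparent Km ATP, while the Adapta CAMK1 assay used ATP listed as 10. Values are given as percent.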

T1 sequence (P08922 28-2347): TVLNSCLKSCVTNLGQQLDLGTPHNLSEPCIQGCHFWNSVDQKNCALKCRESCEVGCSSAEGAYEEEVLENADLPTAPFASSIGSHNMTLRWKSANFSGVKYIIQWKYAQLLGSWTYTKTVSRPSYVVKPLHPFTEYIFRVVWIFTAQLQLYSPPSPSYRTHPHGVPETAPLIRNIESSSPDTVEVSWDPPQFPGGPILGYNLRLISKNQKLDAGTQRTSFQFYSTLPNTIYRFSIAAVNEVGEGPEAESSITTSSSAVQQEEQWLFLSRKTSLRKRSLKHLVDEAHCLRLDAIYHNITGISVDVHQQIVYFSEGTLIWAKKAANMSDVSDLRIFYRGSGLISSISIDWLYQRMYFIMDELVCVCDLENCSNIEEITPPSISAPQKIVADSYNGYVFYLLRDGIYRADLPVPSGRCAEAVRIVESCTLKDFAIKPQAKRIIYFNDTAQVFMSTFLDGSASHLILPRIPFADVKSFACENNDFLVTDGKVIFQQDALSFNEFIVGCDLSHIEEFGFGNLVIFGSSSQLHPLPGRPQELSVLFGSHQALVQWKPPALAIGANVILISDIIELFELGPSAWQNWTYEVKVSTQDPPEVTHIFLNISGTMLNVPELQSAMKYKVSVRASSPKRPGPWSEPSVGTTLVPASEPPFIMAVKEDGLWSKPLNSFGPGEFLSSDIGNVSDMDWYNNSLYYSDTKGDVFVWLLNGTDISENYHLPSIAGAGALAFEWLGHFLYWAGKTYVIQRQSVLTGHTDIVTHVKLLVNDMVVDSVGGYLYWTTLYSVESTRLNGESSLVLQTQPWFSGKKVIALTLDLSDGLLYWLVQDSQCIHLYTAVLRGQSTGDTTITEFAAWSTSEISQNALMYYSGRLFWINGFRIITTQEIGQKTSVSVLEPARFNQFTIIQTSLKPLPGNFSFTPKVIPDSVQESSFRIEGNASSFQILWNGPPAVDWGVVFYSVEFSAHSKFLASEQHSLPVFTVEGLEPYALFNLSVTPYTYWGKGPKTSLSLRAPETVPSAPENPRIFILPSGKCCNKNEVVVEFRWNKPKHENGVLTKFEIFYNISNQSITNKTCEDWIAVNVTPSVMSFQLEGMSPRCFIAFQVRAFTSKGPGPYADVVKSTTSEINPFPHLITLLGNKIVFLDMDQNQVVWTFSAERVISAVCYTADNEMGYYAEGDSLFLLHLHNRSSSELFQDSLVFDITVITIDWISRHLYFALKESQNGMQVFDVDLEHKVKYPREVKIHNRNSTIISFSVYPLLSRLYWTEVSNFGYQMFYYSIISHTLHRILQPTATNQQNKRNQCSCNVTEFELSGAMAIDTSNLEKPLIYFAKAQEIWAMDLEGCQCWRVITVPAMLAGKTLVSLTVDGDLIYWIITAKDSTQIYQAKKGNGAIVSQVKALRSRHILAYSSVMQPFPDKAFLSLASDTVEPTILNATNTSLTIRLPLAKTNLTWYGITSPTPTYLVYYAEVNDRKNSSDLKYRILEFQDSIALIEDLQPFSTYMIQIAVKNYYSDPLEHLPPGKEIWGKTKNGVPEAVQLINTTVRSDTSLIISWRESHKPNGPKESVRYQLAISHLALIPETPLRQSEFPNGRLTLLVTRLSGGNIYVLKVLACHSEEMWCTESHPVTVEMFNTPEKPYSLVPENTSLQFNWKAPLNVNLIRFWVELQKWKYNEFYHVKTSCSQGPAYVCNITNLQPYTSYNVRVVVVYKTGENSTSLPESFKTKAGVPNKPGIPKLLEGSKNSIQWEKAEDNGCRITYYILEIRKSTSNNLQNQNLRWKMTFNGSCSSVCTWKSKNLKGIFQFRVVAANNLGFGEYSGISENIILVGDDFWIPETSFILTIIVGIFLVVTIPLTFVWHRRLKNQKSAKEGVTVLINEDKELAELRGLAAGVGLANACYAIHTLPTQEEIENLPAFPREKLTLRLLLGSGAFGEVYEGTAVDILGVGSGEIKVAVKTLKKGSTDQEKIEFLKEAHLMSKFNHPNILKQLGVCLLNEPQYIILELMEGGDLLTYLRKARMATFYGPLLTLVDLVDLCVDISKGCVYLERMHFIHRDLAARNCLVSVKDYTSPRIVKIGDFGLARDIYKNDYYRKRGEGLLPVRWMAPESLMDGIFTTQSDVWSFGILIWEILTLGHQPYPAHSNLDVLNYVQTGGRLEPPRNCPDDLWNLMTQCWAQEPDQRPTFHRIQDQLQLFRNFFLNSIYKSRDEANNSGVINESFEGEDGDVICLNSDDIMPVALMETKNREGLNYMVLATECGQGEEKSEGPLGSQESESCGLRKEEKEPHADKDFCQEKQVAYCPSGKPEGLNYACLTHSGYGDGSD

## CN(C(=O)CN1CCOCC1)c1ccc2sc3c(-c4cccc5c(=O)cc(N6CC7CCC(C6)O7)oc45)cccc3c2c1 [NU5455]
  inhibition at 1 µM: 8%
